Data: article PMC10004195, “Novel Dual-Target Kinase Inhibitors of EGFR and ALK Were Designed, Synthesized, and Induced Cell Apoptosis in Non-Small Cell Lung Cancer” (Molecules, 2023)
Like-named read-outs stand apart in the source and are kept apart here.

How the values were obtained:
[1] = test system: phosphorylated EGFR (p-EGFR); assay: Immunofluorescence assay of phosphorylated EGFR; type: cell-based, human; conditions: fluorescence assay, treatment for 2 to 4 h
Procedure: (§1) Four kinases (EGFR, EGFR^L858R/T790M, ALK, and EML4-ALK) were tested using an ELISA assay. […] There was no effect on the wild-type EGFR or ALK kinases triggered by the compound. Consequently, the selection of the compound was good as both compounds balanced IC50 against EGFR and ALK, respectively. […] Following that, fluorescence assays were used to measure the phosphorylation of the EGFR and ALK protein affect with compound 9j at the cellular level. […] Next, WB assay was used to test the protein expression of H1975 and H2228 cells at the concentration of 5, 10, and 100 nM.
(§2) Figure 2 (A) The activity of compound 9j against four kinases (EGFR, ALK, EGFR ^L858R T790M, and EML4-ALK). (B) H1975 and H2228 cells were treated with 9j for 2–4 h; the staining for phosphorylated EGFR (p-EGFR) and phosphorylated ALK (p-ALK) was shown as red fluorescence. (C) WB analysis of phosphorylated proteins in drug-treated H1975 and H2228 cells.

[2] = test system: H1975 (EGFR T790M/L858R) cells; assay: CCK8 antiproliferative assay, H1975 cells; type: cell-based, human; conditions: Homo sapiens
Text: The human cancer cell lines (H1975, H2228) used in this study were purchased from the Guangzhou ginny ou biotechnology Co., Ltd. (Guangzhou, China). The human cancer cell lines (NCI-H522) used in this study were purchased from the Shenzhen Haodi Huatuo Biotechnology Co., LTD (Shenzhen, China). The human cancer cell lines (LOVO, HLF, BJ, LO2) used in this study were purchased from the Laboratory Animal Service Center at Sun Yat-sen University (Guangzhou, China). […] Cell lines LOVO, HLF, BJ, and LO2 were cultivated in DMEM containing 10% (v/v) heat-inactivated fetal bovine serum (FBS), 100 units/mL penicillin, and 100 μg/mL streptomycin.

p-ERK = assay: Western blot, p-ERK; type: cell-based, human; conditions: WB, 5, 10 and 100 nM, 3 h treatment
Procedure: as §1
(§3) H1975 (H2228) cells seeded in 60 mm dishes at a density of 5 × 10^5 cells/well were incubated with or without compound 9j (0, 5, 10, 100 nM) for 2–4 h. After treatment, cells were stained as previously described.

p-ALK = assay: Western blot, p-ALK; type: cell-based, human; conditions: WB, 5, 10 and 100 nM, 3 h treatment
Procedure: as §1, §3

EGFR^L858R/T790M = EGFR^L858R/T790M (Homo sapiens, UniProt P00533, L858R/T790M); assay: Kinase ELISA assay, EGFR L858R/T790M; type: biochemical; conditions: read-out: IC50 against EGFR^L858R/T790M
Sequence of EGFR^L858R/T790M (P00533 25-1210 T790M/L858R): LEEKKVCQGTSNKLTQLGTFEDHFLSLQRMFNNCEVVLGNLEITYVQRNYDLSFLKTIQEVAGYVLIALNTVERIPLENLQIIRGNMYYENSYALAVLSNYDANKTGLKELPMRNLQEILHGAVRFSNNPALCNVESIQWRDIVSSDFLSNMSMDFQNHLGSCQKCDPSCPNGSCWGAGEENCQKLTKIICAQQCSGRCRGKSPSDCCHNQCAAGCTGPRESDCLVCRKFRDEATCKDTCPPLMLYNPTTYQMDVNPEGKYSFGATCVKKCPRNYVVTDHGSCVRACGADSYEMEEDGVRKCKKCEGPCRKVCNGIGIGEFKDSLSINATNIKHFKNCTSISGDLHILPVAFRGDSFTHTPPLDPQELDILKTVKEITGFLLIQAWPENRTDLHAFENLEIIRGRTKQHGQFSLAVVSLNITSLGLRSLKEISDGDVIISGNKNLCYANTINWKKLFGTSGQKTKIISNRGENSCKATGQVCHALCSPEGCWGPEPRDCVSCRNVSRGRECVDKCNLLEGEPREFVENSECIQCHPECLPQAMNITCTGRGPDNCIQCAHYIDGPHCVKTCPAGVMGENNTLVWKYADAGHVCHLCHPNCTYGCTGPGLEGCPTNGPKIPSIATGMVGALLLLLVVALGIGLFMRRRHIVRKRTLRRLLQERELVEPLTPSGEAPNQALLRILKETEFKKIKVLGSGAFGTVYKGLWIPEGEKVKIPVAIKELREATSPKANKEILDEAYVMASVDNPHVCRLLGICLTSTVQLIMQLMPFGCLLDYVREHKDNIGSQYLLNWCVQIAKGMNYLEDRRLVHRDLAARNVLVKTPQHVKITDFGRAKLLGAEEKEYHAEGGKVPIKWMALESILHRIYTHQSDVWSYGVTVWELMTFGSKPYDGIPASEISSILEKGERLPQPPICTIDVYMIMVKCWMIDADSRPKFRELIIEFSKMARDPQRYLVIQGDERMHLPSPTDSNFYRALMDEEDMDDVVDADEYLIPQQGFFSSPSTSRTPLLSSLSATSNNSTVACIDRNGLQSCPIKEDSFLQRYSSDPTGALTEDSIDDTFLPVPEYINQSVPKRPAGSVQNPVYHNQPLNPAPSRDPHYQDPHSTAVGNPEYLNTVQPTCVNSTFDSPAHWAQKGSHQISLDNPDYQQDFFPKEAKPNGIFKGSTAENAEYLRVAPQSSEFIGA
Procedure: as §1

H522 cells = assay: CCK8 antiproliferative assay, H522 cells; type: cell-based; conditions: Homo sapiens, NCI-H522, 72 h
Text: The human cancer cell lines (H1975, H2228) used in this study were purchased from the Guangzhou ginny ou biotechnology Co., Ltd. (Guangzhou, China). The human cancer cell lines (NCI-H522) used in this study were purchased from the Shenzhen Haodi Huatuo Biotechnology Co., LTD (Shenzhen, China). The human cancer cell lines (LOVO, HLF, BJ, LO2) used in this study were purchased from the Laboratory Animal Service Center at Sun Yat-sen University (Guangzhou, China). Cell lines were cultivated in 1640 containing 10% (v/v) heat-inactivated fetal bovine serum (FBS), 100 units/mL penicillin, and 100 μg/mL streptomycin. Cell lines LOVO, HLF, BJ, and LO2 were cultivated in DMEM containing 10% (v/v) heat-inactivated fetal bovine serum (FBS), 100 units/mL penicillin, and 100 μg/mL streptomycin.

[3] = test system: phosphorylated ALK (p-ALK); assay: Immunofluorescence assay of phosphorylated ALK; type: cell-based, human; conditions: fluorescence assay, treatment for 2 to 4 h
Procedure: as §1, §2

EML4-ALK = EML4-ALK (Homo sapiens, UniProt Q9UM73); assay: Kinase ELISA assay, EML4-ALK; type: biochemical; conditions: read-out: IC50 against EML4-ALK
Sequence of EML4-ALK (Q9UM73 1058-1620): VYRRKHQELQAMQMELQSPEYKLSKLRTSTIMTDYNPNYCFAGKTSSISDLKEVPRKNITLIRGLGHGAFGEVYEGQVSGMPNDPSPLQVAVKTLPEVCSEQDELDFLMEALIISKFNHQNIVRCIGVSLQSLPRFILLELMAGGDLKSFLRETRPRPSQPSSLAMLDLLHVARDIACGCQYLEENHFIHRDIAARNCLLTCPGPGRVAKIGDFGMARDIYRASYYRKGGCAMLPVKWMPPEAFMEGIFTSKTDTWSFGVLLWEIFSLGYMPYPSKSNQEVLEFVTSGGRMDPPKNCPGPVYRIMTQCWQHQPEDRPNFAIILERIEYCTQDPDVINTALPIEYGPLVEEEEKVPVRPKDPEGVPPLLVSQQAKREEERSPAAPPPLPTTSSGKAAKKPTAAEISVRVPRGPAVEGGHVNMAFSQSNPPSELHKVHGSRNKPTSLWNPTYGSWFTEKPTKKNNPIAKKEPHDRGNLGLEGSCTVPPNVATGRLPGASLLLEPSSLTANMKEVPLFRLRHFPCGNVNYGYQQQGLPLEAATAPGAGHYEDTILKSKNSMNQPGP
Sequence of EML4-ALK (Q9HC35 1-496, further chain): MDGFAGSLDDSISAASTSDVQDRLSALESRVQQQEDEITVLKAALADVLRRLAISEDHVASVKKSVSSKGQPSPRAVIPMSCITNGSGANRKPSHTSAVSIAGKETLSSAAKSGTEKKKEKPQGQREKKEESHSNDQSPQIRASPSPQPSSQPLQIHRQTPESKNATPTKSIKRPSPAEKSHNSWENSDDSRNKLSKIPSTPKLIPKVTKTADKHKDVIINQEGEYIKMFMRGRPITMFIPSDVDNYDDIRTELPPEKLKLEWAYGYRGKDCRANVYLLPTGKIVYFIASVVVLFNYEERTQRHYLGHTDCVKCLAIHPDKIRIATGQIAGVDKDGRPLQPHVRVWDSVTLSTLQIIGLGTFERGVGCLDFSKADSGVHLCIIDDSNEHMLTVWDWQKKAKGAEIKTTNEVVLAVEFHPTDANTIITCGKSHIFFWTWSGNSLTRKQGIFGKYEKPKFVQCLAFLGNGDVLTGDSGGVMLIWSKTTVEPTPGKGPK
Procedure: as §1

In the case of `C=CC(=O)Nc1cc(Nc2ncc(Cl)c(Nc3ccc(Cl)cc3[S+]([O-])C(C)C)n2)c(OC)cc1C1CCN(C)CC1` (stereo not drawn) [9j, N-(5-((5-Chloro-4-((4-chloro-2-(isopropylsulfinyl)phenyl)amino)pyrimidin-2-yl)amino)-4-methoxy-2-(1-methylpiperidin-4-yl)phenyl)acrylamide], the “expression level of phosphorylated EGFR protein” value [1] is reported as “decreased significantly”, the IC50 ([2]; NCI-H1975, 72 h, CCK8 assay, 72 h, H1975 (EGFR T790M/L858R), read-out: IC50 H1975) is reported as 0.0783 ± 0.03 µM and the IC50 ([2]; NCI-H1975, H1975, mean ± SE, unit inferred, read-out: IC50 H1975 (Table 2)) is reported as 0.0783 ± 0.03 µM. The “expression of p-ERK” value (p-ERK) was “inhibited”, the “expression of p-ALK” value (p-ALK) was “inhibited” and the IC50 (EGFR^L858R/T790M) was 0.0357 ± 0.0009 µM. For the same compound, the IC50 (H522 cells) was > 10 µM, the “expression level of phosphorylated ALK protein” value [3] was “decreased significantly” and the IC50 (EML4-ALK) was 0.0563 ± 0.0003 µM.
